Assay results published in patent EP2272817A1, “PAI-1 INHIBITOR” (Institute of Medicinal Molecular Design, Inc., priority 2008, dated 2009).
Where two headings read alike, the source gives them in different places.

Key:
[1] = target: T1, recombinant human PAI-1 (Homo sapiens, UniProt P05121); experiment: Test Example 2: Human PAI-1 Inhibitory Activity (pH 7.4 HEPES buffer, 10 minutes incubation with two-chain tPA); type: biochemical; parameters: purchased Molecular Innovations, Inc; details: read-out: Inhibition Rate of PAI-1 Activity (%)
T1 sequence (P05121 24-402): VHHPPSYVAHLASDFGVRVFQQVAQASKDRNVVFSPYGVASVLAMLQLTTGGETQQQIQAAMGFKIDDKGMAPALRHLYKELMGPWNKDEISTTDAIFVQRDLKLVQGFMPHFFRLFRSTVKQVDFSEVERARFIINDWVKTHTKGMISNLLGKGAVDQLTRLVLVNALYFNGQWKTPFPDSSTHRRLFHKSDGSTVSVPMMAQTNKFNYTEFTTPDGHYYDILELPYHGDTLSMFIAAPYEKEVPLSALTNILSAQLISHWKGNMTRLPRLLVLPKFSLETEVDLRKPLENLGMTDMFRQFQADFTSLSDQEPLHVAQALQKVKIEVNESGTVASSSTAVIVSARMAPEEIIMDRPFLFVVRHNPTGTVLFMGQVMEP
Protocol: 0.1 M HEPES, 0.1 M NaCl. 1 mM EDTA. 0.1 % Polyethylene glycol 8,000 (Hampton Research Corporation),
2 mM Dimethyldecylphoshine oxide [Apo-10] (Fluka Corporation)

[2] = target: T1, recombinant human PAI-1; experiment: biochemical
[3] = target: T2, recombinant rat PAI-1 (Rattus norvegicus, UniProt P20961); experiment: biochemical; details: read-out: Inhibition Rate of PAI-1 Activity (%)
T2 sequence (P20961 24-402): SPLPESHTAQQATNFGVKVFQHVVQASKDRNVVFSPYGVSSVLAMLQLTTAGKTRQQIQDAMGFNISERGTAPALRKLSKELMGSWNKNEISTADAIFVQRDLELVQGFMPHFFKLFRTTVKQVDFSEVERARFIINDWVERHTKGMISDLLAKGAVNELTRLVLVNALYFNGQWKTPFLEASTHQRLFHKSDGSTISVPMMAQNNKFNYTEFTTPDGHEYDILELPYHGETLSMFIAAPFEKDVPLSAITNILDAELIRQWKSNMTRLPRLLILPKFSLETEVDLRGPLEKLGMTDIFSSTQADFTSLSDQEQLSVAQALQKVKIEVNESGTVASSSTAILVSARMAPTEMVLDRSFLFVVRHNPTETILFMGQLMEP

[4] = read-out: Inhibition Rate of PAI-1 Activity (%), Compound Concentration 5µM
[5] = read-out: Inhibition Rate of PAI-1 Activity (%), Compound Concentration 10µM
[6] = read-out: Inhibition Rate of PAI-1 Activity (%), Compound Concentration 25µM
[7] = read-out: Inhibition Rate of PAI-1 Activity (%)

Row | inhibition at 5 µM [2, 7] [%] | inhibition at 10 µM [2, 7] [%] | inhibition at 25 µM [2, 7] [%] | Structure (SMILES) | inhibition at 0.1 µM [1] [%] | inhibition at 0.3 µM [1] [%] | inhibition at 1 µM [1] [%] | inhibition at 3 µM [1] [%] | inhibition at 5 µM [2, 4] [%] | inhibition at 10 µM [2, 5] [%] | inhibition at 25 µM [2, 6] [%] | inhibition at 0.3 µM [3] [%] | inhibition at 1 µM [3] [%] | inhibition at 3 µM [3] [%] | inhibition at 10 µM [3] [%]
1 | – | – | – | CC(C)(C)c1ccc(COc2ccc(Oc3ccc(OC(F)(F)F)cc3)cc2CCC(=O)O)cc1 [Compound 96] | 6 | 7 | 26 | 96 | 36 | 75 | 99 | 3 | 14 | 49 | 96
2 | – | – | – | CC(C)(C)c1ccc(CN(C(=O)C(=O)O)c2cc(C(F)(F)F)ccc2-c2ccc(OC(F)(F)F)cc2)cc1 [Compound 168] | 0 | 0 | 33 | 99 | 63 | 94 | – | 0 | 12 | 81 | 97
3 | – | – | – | CC(C)(C)c1ccc(C(c2ccccc2)N(C(=O)C(=O)O)c2ccc(-c3ccc(OC(F)(F)F)cc3)cc2)cc1 (stereo not shown) [Compound 222] | 0 | 3 | 45 | > 99 | 74 | 91 | – | 3 | 32 | 91 | –
4 | – | – | – | CC(C)c1ccc(Oc2ccc(CCC(=O)O)c(Oc3ccc(C(C)C)cc3)c2)cc1 [Compound 73] | 0 | 6 | 27 | 98 | 30 | 66 | > 99 | 0 | 13 | 75 | 98
5 | – | – | – | O=C(O)CCc1c(Oc2ccc(OC(F)(F)F)cc2)cccc1Oc1ccc(OC(F)(F)F)cc1 [Compound 98] | 0 | 2 | 25 | 84 | 57 | 84 | 98 | 0 | 10 | 39 | 95
6 | – | – | – | CCCCOc1ccc(N(Cc2ccc(C(C)(C)C)cc2)C(=O)C(=O)O)cc1-c1ccc(OC(F)(F)F)cc1 [Compound 193] | 2 | 5 | 34 | > 99 | 81 | 89 | – | 2 | 26 | 81 | 70
7 | 87 | 93 | – | CN(C)c1ccc(N(Cc2ccc(C(C)(C)C)cc2)C(=O)C(=O)O)cc1-c1ccc(OC(F)(F)F)cc1 [Compound 214] | 4 | 2 | 40 | 96 | – | – | – | 0 | 8 | 77 | 97
8 | 63 | 90 | – | CCCCOc1ccc(N(CCCCc2ccccc2)C(=O)C(=O)O)cc1-c1ccc(OC(F)(F)F)cc1 [Compound 227] | 0 | 7 | 41 | 98 | – | – | – | 0 | 14 | 77 | 95
9 | – | – | – | CCN(CC)c1ccc(N(CCCc2ccccc2)C(=O)C(=O)O)c(-c2ccc(OC(F)(F)F)cc2)c1 [Compound 238] | 0 | 0 | 21 | 87 | 76 | 95 | 93 | 0 | 8 | 46 | 98
10 | – | – | – | CC(C)(C)c1ccc(COc2ccc(-c3ccc(OC(F)(F)F)cc3)cc2N(Cc2ccccc2)C(=O)C(=O)O)cc1 [Compound 179] | 1 | 19 | 68 | > 99 | 64 | 91 | – | 7 | 38 | > 99 | > 99
11 | – | – | – | CC(C)(C)c1ccc(COc2c(OCC(=O)O)cccc2-c2ccc(OC(F)(F)F)cc2)cc1 [Compound 117] | 2 | 7 | 46 | > 99 | 63 | 91 | 96 | 0 | 7 | 63 | 94
12 | – | – | – | CC(C)(C)c1ccc(Oc2cccc(-c3ccc(OC(F)(F)F)cc3)c2OCC(=O)O)cc1 [Compound 113] | 0 | 6 | 26 | 73 | 58 | 85 | 97 | 0 | 9 | 33 | 99
13 | – | – | – | CC(C)(C)c1ccc(COc2cccc(Oc3ccc(OC(F)(F)F)cc3)c2CCC(=O)O)cc1 [Compound 86] | 0 | 0 | 22 | 87 | 47 | 80 | 98 | 0 | 12 | 34 | 69
14 | – | – | – | CCCOc1ccc(-c2ccc(OC(F)(F)F)cc2)cc1N(Cc1ccc(C(C)(C)C)cc1)C(=O)C(=O)O [Compound 188] | 0 | 0 | 33 | 97 | 73 | 91 | 91 | 0 | 14 | 84 | > 99
15 | 24 | 54 | 98 | CC(C)(C)c1ccc(COc2cc(-c3ccc(OC(F)(F)F)cc3)ccc2CCC(=O)O)cc1 [Compound 76] | 10 | 12 | 37 | 99 | – | – | – | 0 | 6 | 56 | 86
16 | – | – | – | CCCCOc1ccc(-c2ccc(OC(F)(F)F)cc2)cc1N(CCCCc1ccccc1)C(=O)C(=O)O [Compound 231] | 0 | 6 | 34 | 98 | 81 | 97 | 94 | 3 | 18 | 89 | > 99
17 | – | – | – | CC(C)(C)c1ccc(Oc2cccc(-c3ccc(OC(F)(F)F)cc3)c2CCC(=O)O)cc1 [Compound 94] | 0 | 3 | 24 | 96 | 56 | 90 | 97 | 0 | 15 | 45 | 91
18 | 90 | 92 | – | Cc1cc(N(C)C)c(-c2ccc(OC(F)(F)F)cc2)cc1N(Cc1ccc(C(C)(C)C)cc1)C(=O)C(=O)O [Compound 215] | 7 | 18 | 54 | 95 | – | – | – | 2 | 16 | 84 | 97
19 | 87 | 96 | – | CC(C)Oc1ccc(N(Cc2ccc(C(C)(C)C)cc2)C(=O)C(=O)O)cc1-c1ccc(OC(F)(F)F)cc1 [Compound 211] | 9 | 16 | 43 | 96 | – | – | – | 4 | 17 | 78 | 87
20 | – | – | – | CC(C)(C)c1ccc(CN(C(=O)C(=O)O)c2ccc(-c3ccc(OC(F)(F)F)cc3)cc2Cl)cc1 [Compound 147] | 0 | 7 | 35 | 99 | 38 | 80 | 92 | 0 | 14 | 70 | 87
